Key:
Assay type in all cases: in vivo
Parameters in all cases: key: 1=complete damage; 9=no effect; Score figures of 1 to 4 (in particular 1 to 3) signify a good to very good herbicidal action
Setaria [1] = experiment: Post-emergence herbicidal action; conditions: dose 2000 g a.i./ha; sprayed at 4- to 6-leaf stage; evaluated after approximately 18 days; nine-level key (1=complete damage, 9=no effect)
Experimental: (§1) Monocotyledonous and dicotyledonous test plants are grown in the greenhouse in plastic pots containing standard soil and, in the 4- to 6-leaf stage, sprayed with an aqueous suspension of the test substances of the formula I, prepared from a 25% strength wettable powder (Example F3, b) in accordance with WO 97/34485) or with an emulsion of the test substances of the formula I, prepared from a 25% strength emulsion concentrate (Example F1, c) in accordance with WO 97/34485), corresponding to a dosage of 2 kg/ a.i./ha (500 l of water/ha). The test plants are subsequently grown on in the greenhouse under optimal conditions. After a test period of approximately 18 days, the experiment is evaluated using a nine-level key (1=complete damage, 9=no effect). Score figures of 1 to 4 (in particular 1 to 3) signify a good to very good herbicidal action.
(§2) Test plants: Lolium, Setaria, Sinapis, Solanum, Stellaria, Ipomea.

Ipomoea [2] = experiment: Post-emergence herbicidal action; conditions: dose 2000 g a.i./ha; sprayed at 4- to 6-leaf stage; evaluated after approximately 18 days; nine-level key (1=complete damage, 9=no effect)
Experimental: as §1, §2

Stellaria [3] = experiment: Post-emergence herbicidal action; conditions: dose 2000 g a.i./ha; sprayed at 4- to 6-leaf stage; evaluated after approximately 18 days; nine-level key (1=complete damage, 9=no effect)
Experimental: as §1, §2

Sinapis [4] = experiment: Post-emergence herbicidal action; conditions: dose 2000 g a.i./ha; sprayed at 4- to 6-leaf stage; evaluated after approximately 18 days; nine-level key (1=complete damage, 9=no effect)
Experimental: as §1, §2

Solanum [5] = experiment: Post-emergence herbicidal action; conditions: dose 2000 g a.i./ha; sprayed at 4- to 6-leaf stage; evaluated after approximately 18 days; nine-level key (1=complete damage, 9=no effect)
Experimental: as §1, §2

Lolium [6] = experiment: Post-emergence herbicidal action; conditions: dose 2000 g a.i./ha; sprayed at 4- to 6-leaf stage; evaluated after approximately 18 days; nine-level key (1=complete damage, 9=no effect)
Experimental: as §1, §2

Setaria [7] = experiment: Herbicidal action before plant emergence (pre-emergence action); conditions: 2000 g a.i./ha sprayed immediately after sowing; evaluated after 3 weeks; nine-level key (1=complete damage, 9=no effect)
Source text: (§3) Monocotyledonous and dicotyledonous test plants are sown in standard soil in plastic pots. Immediately after sowing, the test substances are sprayed on as aqueous suspensions (prepared from a 25% strength wettable powder (Example F3, b) in accordance with WO 97/34485) or as emulsions (prepared from a 25% strength emulsion concentrate (Example F1, c) in accordance with WO 97/34485), corresponding to a dosage of 2 kg of a.i./ha (500 l of water/ha). The test plants are subsequently grown in the greenhouse under optimal conditions. After a test period of 3 weeks, the experiment is evaluated using a nine-level key (1=complete damage, 9=no effect). Score figures of 1 to 4 (in particular 1 to 3) signify a good to very good herbicidal action.
as §2

Ipomoea [8] = experiment: as above; conditions: 2000 g a.i./ha sprayed immediately after sowing; evaluated after 3 weeks; nine-level key (1=complete damage, 9=no effect)
Source text: as §3, §2

Stellaria [9] = experiment: as above; conditions: 2000 g a.i./ha sprayed immediately after sowing; evaluated after 3 weeks; nine-level key (1=complete damage, 9=no effect)
Source text: as §3, §2

Sinapis [10] = experiment: as above; conditions: 2000 g a.i./ha sprayed immediately after sowing; evaluated after 3 weeks; nine-level key (1=complete damage, 9=no effect)
Source text: as §3, §2

Solanum [11] = experiment: as above; conditions: 2000 g a.i./ha sprayed immediately after sowing; evaluated after 3 weeks; nine-level key (1=complete damage, 9=no effect)
Source text: as §3, §2

Lolium [12] = experiment: as above; conditions: 2000 g a.i./ha sprayed immediately after sowing; evaluated after 3 weeks; nine-level key (1=complete damage, 9=no effect)
Source text: as §3, §2

SMILES	Post-emergence action, score, Setaria (Setaria [1])	Post-emergence action, score, Ipomoea (Ipomoea [2])	Post-emergence action, score, Stellaria (Stellaria [3])	Post-emergence action, score, Sinapis (Sinapis [4])	Post-emergence action, score, Solanum (Solanum [5])	Post-emergence action, score, Lolium (Lolium [6])	Pre-emergence action, score, test plant Setaria (Setaria [7])	Pre-emergence action, score, test plant Ipomoea (Ipomoea [8])	Pre-emergence action, score, test plant Stellaria (Stellaria [9])	Pre-emergence action, score, test plant Sinapis (Sinapis [10])	Pre-emergence action, score, test plant Solanum (Solanum [11])	Pre-emergence action, score, test plant Lolium (Lolium [12])
Cn1c(C(F)(F)F)cc(=O)n(-c2nc(OCC#N)c(Cl)cc2F)c1=O [1.363]	1	1	1	1	1	1	1	7	1	2	1	3
Cn1c(C(F)(F)F)cc(=O)n(-c2nc(OCOCc3ccccc3)c(Cl)cc2F)c1=O [1.025]	3	1	1	1	1	1	1	1	3	1	1	3
C=CCOc1cc(F)c(-n2c(=O)cc(C(F)(F)F)n(C)c2=O)nc1Cl [500.007]							4				1	
COC(=O)C(C)Oc1cc(F)c(-n2c(=O)cc(C(F)(F)F)n(C)c2=O)nc1Cl (centres unmarked) [500.029]		1		1	1		4				1	
CSC(=O)COc1cc(F)c(-n2c(=O)cc(C(F)(F)F)n(C)c2=O)nc1Cl [500.033]		1		1	1		2				1	
CCCOc1nc(-n2c(=O)cc(C(F)(F)F)n(C)c2=O)c(F)cc1Cl [1.367]	1	1	1	1	1	1	1	1	1	1	1	1
Cn1c(C(F)(F)F)cc(=O)n(-c2nc(OCC(F)(F)F)c(Cl)cc2F)c1=O [1.365]	1	1	1	1	1	1	1	1	1	1	1	1
COC(=O)C(Oc1cc(Cl)c(-n2c(=O)cc(C(F)(F)F)n(C)c2=O)nc1Cl)c1ccccc1 (centres unmarked) [500.144]							2				1	
Cn1c(C(F)(F)F)cc(=O)n(-c2nc(OCC(N)=O)c(Cl)cc2F)c1=O [1.366]	1	1	1	1	1	1	1	1	3	1	1	3
COc1nc(-n2c(=O)cc(C(F)(F)F)n(C)c2=O)c(F)cc1Cl [1.016]	1	1	1	1	1	1	1	1	1	1	1	1
C=CCOc1nc(-n2c(=O)cc(C(F)(F)F)n(C)c2=O)c(F)cc1Cl [1.020]	1	1	1	1	1	1	1	1	1	1	1	1
Cn1c(C(F)(F)F)cc(=O)n(-c2nc(OCc3ccccc3)c(Cl)cc2F)c1=O [1.026]	3	1	3	1	1	3	1	1	3	1	1	1
CCOc1cc(F)c(-n2c(=O)cc(C(F)(F)F)n(C)c2=O)nc1Cl [500.004]		3		2	1							
